Target: T1, TRPC3 (Homo sapiens, UniProt Q13507)
T1 sequence (Q13507 1-921): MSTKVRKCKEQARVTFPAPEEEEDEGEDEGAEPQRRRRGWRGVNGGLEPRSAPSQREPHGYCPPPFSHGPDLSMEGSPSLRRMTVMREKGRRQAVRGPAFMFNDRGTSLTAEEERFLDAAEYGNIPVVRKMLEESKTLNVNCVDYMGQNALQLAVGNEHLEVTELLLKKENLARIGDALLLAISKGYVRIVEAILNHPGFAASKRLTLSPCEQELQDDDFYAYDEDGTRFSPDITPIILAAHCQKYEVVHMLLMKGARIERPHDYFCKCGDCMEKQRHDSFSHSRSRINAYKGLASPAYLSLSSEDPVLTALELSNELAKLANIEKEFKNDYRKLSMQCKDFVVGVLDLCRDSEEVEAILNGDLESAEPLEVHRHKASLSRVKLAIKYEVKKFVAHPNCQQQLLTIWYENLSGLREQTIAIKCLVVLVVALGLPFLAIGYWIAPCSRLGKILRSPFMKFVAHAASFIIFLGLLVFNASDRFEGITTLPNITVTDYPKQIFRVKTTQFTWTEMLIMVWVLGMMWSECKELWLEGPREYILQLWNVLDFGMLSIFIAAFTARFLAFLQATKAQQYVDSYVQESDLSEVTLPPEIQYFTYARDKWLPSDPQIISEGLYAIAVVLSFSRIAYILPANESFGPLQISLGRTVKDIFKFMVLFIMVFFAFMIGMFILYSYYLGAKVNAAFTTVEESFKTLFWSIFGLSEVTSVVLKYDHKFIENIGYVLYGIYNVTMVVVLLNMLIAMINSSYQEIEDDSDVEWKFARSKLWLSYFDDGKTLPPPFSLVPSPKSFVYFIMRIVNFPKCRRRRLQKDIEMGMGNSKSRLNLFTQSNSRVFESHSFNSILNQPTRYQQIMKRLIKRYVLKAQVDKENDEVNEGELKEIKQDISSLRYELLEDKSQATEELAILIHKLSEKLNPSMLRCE
Assay: whole-cell patch clamp of HEK293 cells transfected with hTRPC3, currents activated by GSK1702934A
Assay type: cell-based
Design: expressed in transfected cells; host or cells: HEK293 (CRL-1573), transient transfection, pMO vector
Settings: 10 μM compound in presence of agonist GSK1702934A; HEK293 whole-cell peak current; read-out: hTRPC3 % Inhibition at 10 μM (mean ± SEM)
Protocol: Human embryonic kidney 293 (HEK293; catalog number CRL-1573) cells were cultured in Dulbecco's modified Eagle's medium (Invitrogen) supplemented with 10% fetal bovine serum and 1% penicillin-streptomycin at 37° C. and 5% CO2. Constructs cloned in pMO (a pcDNA3-modified vector) were co-transfected with GFP-pMO, using Lipofectamine 2000 (Invitrogen) according to the manufacturer's instructions. Macroscopic currents in the whole-cell patch clamp configuration were recorded 18-24 h post-transfection. The extracellular solution contained 140 mM NaCl, 6 mM KCl, 2 mM MgCl2, 10 mM HEPES, and 10 mM glucose (pH 7.4). Pipettes were made of borosilicate glass (outer diameter, 1.5 mm; inner diameter, 1.10 mm; Sutter Instruments) and fire-polished with a resistance between 2.8 and 4.0 megaohms when filled with an intracellular solution that contained 140 mM CsCl, 5 mM EGTA, and 10 mM HEPES, pH 7.2. Currents were recorded with a Multiclamp 700B amplifier (Molecular Devices) using a 1-s ramp from −100 to 100 mV. Agonist and antagonists perfused were dissolved in the bath solution prior experiments: TRP channel agonists Allyl isothiocyanate (AITC; TRPA1), capsaicin (TRPV1), and menthol (TRPM8) were obtained from Sigma, GSK1016790A (TRPV4) from Cayman chemicals, and GSK1702934A (TRPC3, TRPC6 and TRPC7) from Tocris Bioscience. Antagonist Pyr3 was obtained from Tocris Bioscience, all other antagonists were synthesized in house. Data were acquired with a sampling rate of 20 kHz, low-pass filtered (10 kHz), and analyzed offline using Clampfit v10.4.2.0 (Molecular Devices).
Electrophysiology results were expressed as means±SD. Data were plotted, and sigmoidal fitting was done using OriginPro (from OriginLab), with the following Boltzmann function:
Using the patch clamp technique in the whole-cell configuration, compounds were screened by challenging hTRPC3 overexpressing HEK293 cells with GSK1702934A to activate TRPC3 and each of the synthesized compounds (10 μM) individually in the presence of the agonist.
To avoid tachyphylaxis and determine the IC50 of compound 22, each point of the dose response curve (FIG. 1B) was done individually on a cell and exchanging coverslips between cells. […] FIGS. 1D-1I show the inhibition of TRPC3-mediated currents by compound 22 and Pyr3 (serving as the reference control). […] Similar results were obtained when OAG was used as the agonist (data not shown).

Row | SMILES | inhibition at 10 µM [%]
1 | CS(=O)(=O)c1cnn(-c2ccc(-n3ccc(Cl)c(Cl)c3=O)cc2)c1C(F)(F)F [Compound 73, 3,4-Dichloro-1-(4-(4-(methylsulfonyl)-5-(trifluoromethyl)-1H-pyrazol-1-yl)phenyl)pyridine-2(1H)-one] | 72.7 ± 7.96
2 | CCNC(=O)c1sc(-c2ccc(-n3ccc(Cl)c(Cl)c3=O)cc2)nc1C(F)(F)F [Compound 65, 2-(4-(3,4-dichloro-2-oxopyridin-1(2H)-yl)phenyl)-N-ethyl-4-(trifluoromethyl)thiazole-5-carboxamide] | 54.9 ± 4.61
3 | CCOC(=O)c1cnn(-c2ccc(-n3cc(Cl)c(Cl)cc3=O)cc2)c1C(F)(F)F [Compound 5, Ethyl 1-(4-(4,5-dichloro-2-oxopyridin-1(2H)-yl)phenyl)-5-(trifluoromethyl)-1H-pyrazole-4-carboxylate] | 39.1 ± 2.31
4 | CCNC(=O)c1cnn(-c2ccc(-n3cc(Br)c(Cl)c(Br)c3=O)cc2)c1C(F)(F)F [Compound 34] | 34 ± 6.52
5 | CCNC(=O)c1ncn(-c2ccc(-n3ccc(Cl)c(Cl)c3=O)cc2)c1C(F)(F)F [Compound 59, 1-(4-(3,4-dichloro-2-oxopyridin-1(2H)-yl)phenyl)-N-ethyl-5-(trifluoromethyl)-1H-imidazole-4-carboxamide] | 95.9 ± 3.72
6 | CCNC(=O)c1cnn(-c2ccc(-n3ccc(Cl)c(Cl)c3=O)cc2)c1C#N [Compound 52, 5-cyano-1-(4-(3,4-dichloro-2-oxopyridin-1(2H)-yl)phenyl)-N-ethyl-1H-pyrazole-4-carboxamide] | 88.8 ± 6.37
7 | CCNC(=O)c1cnn(-c2ccc(-n3ccc(Cl)c(Br)c3=O)cc2)c1C(F)(F)F [Compound 25, 1-(4-(3-bromo-4-chloro-2-oxopyridin-1(2H)-yl)phenyl)-N-ethyl-5-(trifluoromethyl)-1H-pyrazole-4-carboxamide] | 76 ± 6.65
8 | CCNC(=O)c1cnn(-c2ccc(-n3cc(Cl)c(Cl)cc3=O)cc2)c1C(F)(F)F [Compound 23] | 51.5 ± 6
9 | CC(=O)c1cnn(-c2ccc(-n3cc(Cl)c(C)c(Cl)c3=O)cc2)c1C(F)(F)F [Compound 72, 1-(4-(4-acetyl-5-(trifluoromethyl)-1H-pyrazol-1-yl)phenyl)-3,5-dichloro-4-methylpyridin-2(1H)-one] | 52.1 ± 8.41
10 | CCNC(=O)c1nnn(-c2ccc(-n3ccc(Cl)c(Cl)c3=O)cc2)c1C(F)(F)F [Compound 61, 1-(4-(3,4-dichloro-2-oxopyridin-1(2H)-yl)phenyl)-N-ethyl-5-(trifluoromethyl)-1H-1,2,3-triazole-4-carboxamide] | 47.1 ± 8.29
11 | CCOC(=O)c1cnn(-c2ccc(-n3cc(Cl)c(Cl)c(Cl)c3=O)cc2)c1C(F)(F)F [Compound 9, Ethyl 1-(4-(3,4,5-trichloro-2-oxopyridin-1(2H)-yl)phenyl)-5-(trifluoromethyl)-1H-pyrazole-4-carboxylate] | 39.1 ± 2.31
12 | CCOCc1cnn(-c2ccc(-n3ccc(Cl)c(Cl)c3=O)cc2)c1C(F)(F)F [Compound 78, 3,4-dichloro-1-(4-(4-(ethoxymethyl)-5-(trifluoromethyl)-1H-pyrazol-1-yl)phenyl)pyridin-2(1H)-one] | 68.3 ± 2.11
13 | CCNC(=O)c1cnn(-c2ccc(-n3ccc(Cl)c(Cl)c3=O)cc2)c1 [Compound 50, 1-(4-(3,4-dichloro-2-oxopyridin-1(2H)-yl)phenyl)-N-ethyl-1H-pyrazole-4-carboxamide] | 98.08 ± 0.85
14 | CCCCNC(=O)c1cnn(-c2ccc(-n3ccc(Cl)c(Cl)c3=O)cc2)c1C(F)(F)F [Compound 40, N-butyl-1-(4-(3,4-dichloro-2-oxopyridin-1(2H)-yl)phenyl)-5-(trifluoromethyl)-1H-pyrazole-4-carboxamide] | 40.2 ± 3.95
15 | NC(=O)c1cnn(-c2ccc(-n3ccc(Cl)c(Cl)c3=O)cc2)c1C(F)(F)F [Compound 37, 1-(4-(3,4-dichloro-2-oxopyridin-1(2H)-yl)phenyl)-5-(trifluoromethyl)-1H-pyrazole-4-carboxamide] | 40.2 ± 10.3
16 | CCN(CC)C(=O)c1cnn(-c2ccc(-n3ccc(Cl)c(Cl)c3=O)cc2)c1C(F)(F)F [Compound 43, 1-(4-(3,4-dichloro-2-oxopyridin-1(2H)-yl)phenyl)-N,N-diethyl-5-(trifluoromethyl)-1H-pyrazole-4-carboxamide] | 94.8 ± 2.75
17 | CC(=O)c1cnn(-c2ccc(-n3ccc(C)c(Cl)c3=O)cc2)c1C(F)(F)F [Compound 71, 1-(4-(4-acetyl-5-(trifluoromethyl)-1H-pyrazol-1-yl)phenyl)-3-chloro-4-methylpyridin-2(1H)-one] | 57.8 ± 8.74
18 | CCOC(=O)c1cnn(-c2ccc(-n3ccccc3=O)cc2)c1C(F)(F)F [Compound 1, Ethyl 1-(4-(2-oxopyridin-1(2H)-yl)phenyl)-5-(trifluoromethyl)-1H-pyrazole-4-carboxylate] | 49.5 ± 3.91
19 | CCOC(=O)c1cnn(-c2ccc(-n3cc(Cl)cc(Cl)c3=O)cc2)c1C(F)(F)F [Compound 6, Ethyl 1-(4-(3,5-dichloro-2-oxopyridin-1(2H)-yl)phenyl)-5-(trifluoromethyl)-1H-pyrazole-4-carboxylate] | 50.5 ± 5.49
20 | CCCNC(=O)c1cnn(-c2ccc(-n3ccc(Cl)c(Cl)c3=O)cc2)c1C(F)(F)F [Compound 39, 1-(4-(3,4-dichloro-2-oxopyridin-1(2H)-yl)phenyl)-N-propyl-5-(trifluoromethyl)-1H-pyrazole-4-carboxamide] | 71.5 ± 4.51
21 | CCNC(=O)c1cnn(-c2ccc(-n3cc(Cl)c(Cl)c(Cl)c3=O)cc2)c1C(F)(F)F [Compound 33] | 45.2 ± 3.59
22 | CCOC(=O)c1cnn(-c2ccc(-n3cc(Cl)ccc3=O)cc2)c1C(F)(F)F [Compound 3, Ethyl 1-(4-(5-chloro-2-oxopyridin-1(2H)-yl)phenyl)-5-(trifluoromethyl)-1H-pyrazole-4-carboxylate] | 54 ± 7.25
23 | CCOC(=O)c1cnn(-c2ccc(-n3ccc(Cl)c(Cl)c3=O)cc2)c1C(F)(F)F [Compound 4, Ethyl 1-(4-(3,4-dichloro-2-oxopyridin-1(2H)-yl)phenyl)-5-(trifluoromethyl)-1H-pyrazole-4-carboxylate] | 51.4 ± 4.35
24 | CCNC(=O)c1cnn(-c2ccc(NC(=O)C(Cl)=C(Cl)Cl)cc2)c1C(F)(F)F [Compound 79, N-ethyl-1-(4-(2,3,3-trichloroacrylamido)phenyl)-5-(trifluoromethyl)-1H-pyrazole-4-carboxamide] | 23.2 ± 1.23
25 | CCNS(=O)(=O)c1cnn(-c2ccc(-n3ccc(Cl)c(Cl)c3=O)cc2)c1C(F)(F)F [Compound 48, 1-(4-(3,4-dichloro-2-oxopyridin-1(2H)-yl)phenyl)-N-ethyl-5-(trifluoromethyl)-1H-pyrazole-4-sulfonamide] | 67.8 ± 1.75
26 | CCNC(=O)c1cnn(-c2ccc(-n3ccc(Cl)c(F)c3=O)cc2)c1C(F)(F)F [Compound 24] | 55.5 ± 7.07

Same assay, conditions: agonist GSK1702934A; HEK293 whole-cell patch clamp; read-out: hTRPC3 IC50 (μM, mean ± SEM)

Row | SMILES | IC50 [µM]
27 | CCNC(=O)c1ncn(-c2ccc(-n3ccc(Cl)c(Cl)c3=O)cc2)c1C(F)(F)F [Compound 59, 1-(4-(3,4-dichloro-2-oxopyridin-1(2H)-yl)phenyl)-N-ethyl-5-(trifluoromethyl)-1H-imidazole-4-carboxamide] | 0.87 ± 0.17
28 | CCNC(=O)c1cnn(-c2ccc(-n3ccc(Cl)c(Cl)c3=O)cc2)c1 [Compound 50, 1-(4-(3,4-dichloro-2-oxopyridin-1(2H)-yl)phenyl)-N-ethyl-1H-pyrazole-4-carboxamide] | 2.56 ± 0.52
29 | CCN(CC)C(=O)c1cnn(-c2ccc(-n3ccc(Cl)c(Cl)c3=O)cc2)c1C(F)(F)F [Compound 43, 1-(4-(3,4-dichloro-2-oxopyridin-1(2H)-yl)phenyl)-N,N-diethyl-5-(trifluoromethyl)-1H-pyrazole-4-carboxamide] | 4.32 ± 0.98
